Test results as given in patent EP3375430A1, “FRAGRANCE COMPOSITIONS” (Takasago International Corporation, priority 2017, dated 2018).

Legend:
[1] = Headspace concentration of fragrance ingredients over blotter (thermal desorption GC-MS); type: physicochemical; conditions: fragrance TAK;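 on headspace concentration in composition C1 compared to control EdT1: C1 is an invention composition and EdT1 a conventional EdT of fragrance TAK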
Outline: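 Fragrance (100µL) applied to a 10 cm perfumers' blotter held on a 32°C hot plate, equilibrated 5 min; headspace drawn through Tenax TA tubes at 17mL/min until 280mL collected, repeated at later sampling times. Tubes thermally desorbed splitless onto HP-5MS column, GC-MS detection, mass range 35 to 350.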

[2] = Amount of fragrance ingredients retained on paper blotter after evaporation (ethanol extraction, GC-MS); type: physicochemical
Outline: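 100 µL of fragrance formulation applied to paper blotters kept at 32°C open to air; at each time three blotters extracted 1 h in ethanol with methyl decanoate internal standard and analysed by GC-MS (HP-5MS, 50–280°C). Amounts averaged over triplicates and expressed as percent of time-zero level.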

**Q.** For `C=CC(C)(CCC=C(C)C)OC(C)=O` (stereo not drawn) [Linalyl acetate], which “headspace concentration in composition C1 compared to control EdT1” value ([1]; T0 + 4h, Figure 3) is on record?
**A.** The value was “significantly greater”.

**Q.** What about the “headspace concentration in composition C14 compared to control EdT1” value ([1]; T0+4h and T0+8h, Figures 17 and 18) of the same compound?
**A.** The value was “significantly greater”.

**Q.** What about the “headspace concentration in composition C15 compared to control EdT1” value ([1]; T0+4h and T0+8h, Figures 20 and 21, difference significant for linalool, linalyl acetate and Verdox™) of the same compound?
**A.** Its value is “greater”.

**Q.** And the “headspace concentration in composition C1 compared to control EdT1” value ([1]; T0 + 8h, Figure 4)?
**A.** The value was “much greater”.

**Q.** What about the “headspace concentration in composition C1 compared to control EdT1” value ([1]; after 1 hour, Figure 2) of the same compound?
**A.** Its value is “greater”.

**Q.** What about the “amount of fragrance ingredient retained on blotter (percentage of the initial amount)” value (shortened to “amount … (percentage of the initial amount)”) ([2]; Table 3, fragrance TAK in C1, 15 min, 32°C) of the same compound?
**A.** Its value is 79%.

**Q.** What about the “amount … (percentage of the initial amount)” value ([2]; Table 3, fragrance TAK in C1, 60 min, 32°C) of the same compound?
**A.** The value was 62%.

**Q.** And the “amount … (percentage of the initial amount)” value ([2]; Table 3, fragrance TAK in C1, 120 min, 32°C)?
**A.** The value was 39%.

**Q.** What about the “amount … (percentage of the initial amount)” value ([2]; Table 3, fragrance TAK in C1, 240 min, 32°C) of the same compound?
**A.** The value was 19%.

**Q.** And the “amount … (percentage of the initial amount)” value ([2]; Table 3, fragrance TAK in C1, 480 min, 32°C)?
**A.** Its value is 7%.

**Q.** What about the “amount … (percentage of the initial amount)” value ([2]; Table 3, fragrance TAK in EdT1, 15 min, 32°C) of the same compound?
**A.** The value was 70%.

**Q.** What about the “amount … (percentage of the initial amount)” value ([2]; Table 3, fragrance TAK in EdT1, 60 min, 32°C) of the same compound?
**A.** The value was 27%.

**Q.** And the “amount … (percentage of the initial amount)” value ([2]; Table 3, fragrance TAK in EdT1, 120 min, 32°C)?
**A.** Its value is 6%.

**Q.** And the “amount … (percentage of the initial amount)” value ([2]; Table 3, fragrance TAK in EdT1, 240 min, 32°C)?
**A.** Its value is 2%.

**Q.** And the “amount … (percentage of the initial amount)” value ([2]; Table 3, fragrance TAK in EdT1, 480 min, 32°C)?
**A.** The value was less than 1%.

**Q.** And the “amount … (percentage of the initial amount)” value ([2]; Table 3, fragrance TAK in EdT1 or C1, T0, set at 100% (normalisation))?
**A.** The value was 100%.

**Q.** What about the “amount … (percentage of the initial amount)” value ([2]; Table 4, fragrance TAK in C2, 15 min, 32°C) of the same compound?
**A.** The value was 92%.

**Q.** And the “amount … (percentage of the initial amount)” value ([2]; Table 4, fragrance TAK in C2, 480 min, 32°C)?
**A.** Its value is 9%.

**Q.** What about the “amount … (percentage of the initial amount)” value ([2]; Table 4, fragrance TAK in EdT1, 15 min, 32°C) of the same compound?
**A.** Its value is 72%.

**Q.** What about the “amount … (percentage of the initial amount)” value ([2]; Table 4, fragrance TAK in EdT1, 480 min, 32°C) of the same compound?
**A.** Its value is 2%.

**Q.** What about the “amount … (percentage of the initial amount)” value ([2]; Table 4, fragrance TAK in EdT1 or C2, T0, set at 100% (normalisation)) of the same compound?
**A.** Its value is 100%.

**Q.** And the “amount … (percentage of the initial amount)” value ([2]; Table 5, fragrance TAK in C3, 15 min, 32°C)?
**A.** Its value is 83%.

**Q.** What about the “amount … (percentage of the initial amount)” value ([2]; Table 5, fragrance TAK in C3, 60 min, 32°C) of the same compound?
**A.** The value was 62%.

**Q.** What about the “amount … (percentage of the initial amount)” value ([2]; Table 5, fragrance TAK in C3, 120 min, 32°C) of the same compound?
**A.** Its value is 41%.

**Q.** What about the “amount … (percentage of the initial amount)” value ([2]; Table 5, fragrance TAK in C3, 240 min, 32°C) of the same compound?
**A.** Its value is 24%.

**Q.** And the “amount … (percentage of the initial amount)” value ([2]; Table 5, fragrance TAK in C3, 480 min, 32°C)?
**A.** Its value is 8%.

**Q.** What about the “amount … (percentage of the initial amount)” value ([2]; Table 5, fragrance TAK in C3, 1440 min, 32°C) of the same compound?
**A.** Its value is 3%.

**Q.** And the “amount … (percentage of the initial amount)” value ([2]; Table 5, fragrance TAK in EdT1, 15 min, 32°C)?
**A.** The value was 70%.

**Q.** And the “amount … (percentage of the initial amount)” value ([2]; Table 5, fragrance TAK in EdT1, 60 min, 32°C)?
**A.** The value was 26%.

**Q.** And the “amount … (percentage of the initial amount)” value ([2]; Table 5, fragrance TAK in EdT1, 120 min, 32°C)?
**A.** Its value is 6%.

**Q.** What about the “amount … (percentage of the initial amount)” value ([2]; Table 5, fragrance TAK in EdT1, 240 min, 32°C) of the same compound?
**A.** Its value is 2%.

**Q.** And the “amount … (percentage of the initial amount)” value ([2]; Table 5, fragrance TAK in EdT1, 480 min, 32°C)?
**A.** Its value is less than 1%.

**Q.** What about the “amount … (percentage of the initial amount)” value ([2]; Table 5, fragrance TAK in EdT1, 1440 min, 32°C) of the same compound?
**A.** The value was less than 1%.

**Q.** What about the “amount … (percentage of the initial amount)” value ([2]; Table 5, fragrance TAK in EdT1 or C3, T0, set at 100% (normalisation)) of the same compound?
**A.** Its value is 100%.

**Q.** What about the “amount … (percentage of the initial amount)” value ([2]; Table 6, fragrance TAK in C4, 15 min, 32°C) of the same compound?
**A.** Its value is 82%.

**Q.** What about the “amount … (percentage of the initial amount)” value ([2]; Table 6, fragrance TAK in C4, 60 min, 32°C) of the same compound?
**A.** Its value is 62%.

**Q.** What about the “amount … (percentage of the initial amount)” value ([2]; Table 6, fragrance TAK in C4, 120 min, 32°C) of the same compound?
**A.** The value was 34%.

**Q.** And the “amount … (percentage of the initial amount)” value ([2]; Table 6, fragrance TAK in C4, 240 min, 32°C)?
**A.** Its value is 18%.

**Q.** And the “amount … (percentage of the initial amount)” value ([2]; Table 6, fragrance TAK in C4, 480 min, 32°C)?
**A.** The value was 10%.

**Q.** What about the “amount … (percentage of the initial amount)” value ([2]; Table 6, fragrance TAK in EdT1, 15 min, 32°C) of the same compound?
**A.** The value was 70%.

**Q.** And the “amount … (percentage of the initial amount)” value ([2]; Table 6, fragrance TAK in EdT1, 60 min, 32°C)?
**A.** Its value is 27%.

**Q.** And the “amount … (percentage of the initial amount)” value ([2]; Table 6, fragrance TAK in EdT1, 120 min, 32°C)?
**A.** The value was 6%.

**Q.** And the “amount … (percentage of the initial amount)” value ([2]; Table 6, fragrance TAK in EdT1, 240 min, 32°C)?
**A.** The value was 2%.

**Q.** What about the “amount … (percentage of the initial amount)” value ([2]; Table 6, fragrance TAK in EdT1, 480 min, 32°C) of the same compound?
**A.** Its value is less than 1%.

**Q.** And the “amount … (percentage of the initial amount)” value ([2]; Table 6, fragrance TAK in EdT1 or C4, T0, set at 100% (normalisation))?
**A.** The value was 100%.
